BindingDB's records for doi:10.1074/jbc.270.11.6056 (Medical Research Council Centre, 1995)
Counter-ions that a name gives are not always drawn.

Molecular target: T1, 5-hydroxytryptamine receptor 3A (Mus musculus, UniProt P23979)
T1 sequence (P23979 whole entry): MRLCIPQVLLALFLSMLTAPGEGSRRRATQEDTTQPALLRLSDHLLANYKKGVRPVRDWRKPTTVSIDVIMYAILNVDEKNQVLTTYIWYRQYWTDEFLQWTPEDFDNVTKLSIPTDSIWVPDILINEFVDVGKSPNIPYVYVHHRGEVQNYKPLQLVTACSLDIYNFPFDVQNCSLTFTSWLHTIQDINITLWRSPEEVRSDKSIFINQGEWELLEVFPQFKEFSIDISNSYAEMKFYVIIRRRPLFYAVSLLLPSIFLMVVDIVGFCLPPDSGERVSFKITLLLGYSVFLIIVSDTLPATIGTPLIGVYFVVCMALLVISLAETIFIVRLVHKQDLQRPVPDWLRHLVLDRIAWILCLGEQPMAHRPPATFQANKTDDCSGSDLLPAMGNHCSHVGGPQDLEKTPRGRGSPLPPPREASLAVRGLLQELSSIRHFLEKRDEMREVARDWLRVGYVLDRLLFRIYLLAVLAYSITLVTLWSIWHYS

SMILES	Ki [nM]
CN1C2CCC1CC(OC(=O)c1cc(Cl)cc(Cl)c1)C2 (stereo not drawn) [MDL 72222]	13
N=C(N)NC(=N)Nc1cccc(Cl)c1 [1-(3-CHLOROPHENYL)BIGUANIDE HYDROCHLORIDE]	0.94
Cc1nc[nH]c1CCC(=O)c1cc2ccccc2n1C [CAS_124006]	0.21
